The record followed here is ChEMBL document CHEMBL1124673, “A multisubstrate adduct inhibitor of a purine biosynthetic enzyme with a picomolar dissociation constant” (J Med Chem, 1989).

The target of test [1] is T1, Trifunctional purine biosynthetic protein adenosine-3 (Mus musculus, UniProt Q64737).
T1 sequence (Q64737 whole entry): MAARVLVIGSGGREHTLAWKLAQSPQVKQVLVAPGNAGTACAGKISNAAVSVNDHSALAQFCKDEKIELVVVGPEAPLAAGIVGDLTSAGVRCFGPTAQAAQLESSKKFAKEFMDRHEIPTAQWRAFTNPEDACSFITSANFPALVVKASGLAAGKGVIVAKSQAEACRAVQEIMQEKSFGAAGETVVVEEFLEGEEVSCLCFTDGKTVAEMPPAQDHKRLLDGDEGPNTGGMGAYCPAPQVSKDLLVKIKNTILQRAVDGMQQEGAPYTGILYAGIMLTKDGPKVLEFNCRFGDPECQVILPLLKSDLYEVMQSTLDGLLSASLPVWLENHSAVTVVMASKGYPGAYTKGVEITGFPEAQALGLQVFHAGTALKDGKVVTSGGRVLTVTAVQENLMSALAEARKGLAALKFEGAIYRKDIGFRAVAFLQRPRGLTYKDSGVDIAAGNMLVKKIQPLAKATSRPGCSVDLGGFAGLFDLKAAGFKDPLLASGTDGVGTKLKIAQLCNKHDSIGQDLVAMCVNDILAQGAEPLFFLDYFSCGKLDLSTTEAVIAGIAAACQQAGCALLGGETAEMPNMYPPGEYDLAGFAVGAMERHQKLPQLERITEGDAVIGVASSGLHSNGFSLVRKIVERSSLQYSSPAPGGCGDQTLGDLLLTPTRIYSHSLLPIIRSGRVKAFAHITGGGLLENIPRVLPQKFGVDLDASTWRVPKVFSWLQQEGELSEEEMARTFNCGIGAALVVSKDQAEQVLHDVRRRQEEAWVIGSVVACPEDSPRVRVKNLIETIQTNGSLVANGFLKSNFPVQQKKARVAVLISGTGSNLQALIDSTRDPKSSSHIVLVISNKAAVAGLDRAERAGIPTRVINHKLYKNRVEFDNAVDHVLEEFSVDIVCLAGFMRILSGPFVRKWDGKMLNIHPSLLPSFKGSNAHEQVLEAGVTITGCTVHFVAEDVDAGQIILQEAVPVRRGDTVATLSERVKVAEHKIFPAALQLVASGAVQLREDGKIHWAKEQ
As to the kind of experiment: Thermodynamic dissociation constant (KD) was measured upon binding to GAR TFase in mice.

Test [2] concerns the target T1, Trifunctional purine biosynthetic protein adenosine-3. As to the kind of experiment: Compound was tested for inhibition constant against GAR TFase in mice.

As a reminder, the Kd is the constant that tells how readily two partners part at equilibrium. Higher therefore signals weaker binding. One may read the Ki as a measure of affinity in units of concentration, obtained from inhibition or displacement. Read a high Ki as a looser hold on the target. `Nc1nc2ccc(CN(C(=O)CSCC(=O)NC3O[C@H](COP(=O)(O)O)[C@@H](O)[C@H]3O)c3ccc(C(=O)N[C@H](CCC(=O)O)C(=O)O)cc3)cc2c(=O)[nH]1` (some centres not stated) showed a Kd in test [1] of 0.25 nM. The Ki in test [2] was over 100 nM.
